# Data: patent publication US5356882A, “Antiviral pyrimidine nucleosides” (University of Birmingham, priority 1989, dated 1994)
# How the values were obtained:
# VZV = assay: Anti-VZV Activity, plaque reduction assay in MRC-5 cells; format: cell-based, varicella zoster virus (clinical isolates); conditions: Human alphaherpesvirus 3, MRC5, MRC-5 cells, clinical isolates
# Experimental: Clinical isolates of varicella zoster virus (VZV) were assayed in monolayers of MRC-5 cells. MRC-5 cells are derived from human embyonic lung tissue. A plaque reduction assay was used in which a suspension Of the virus stock was used to infect monolayers of the cells in multiwell trays. a range of concentrations of the compound under test of known molarity was added to the wells. Plaque numbers at each concnetration were expressed as percentages of the control and a dose response curve was constructed. From these curves the 50% inhibitory concentration of each drug was determined.
# HSV1 = assay: Anti-HSV Activity, plaque reduction assay in Vero cells (HSV-1 strain SC16); format: cell-based, Herpes Simplex Virus type 1 (strain SC16)
# Experimental: (§1) Herpes Simplex Virus types 1 (HSV 1) and 2 (HSV2) were assayed in monolayers of Vero cells in multiwell trays. The virus strains used were SC16 and 186 for HSV-1 and HSV-2 respectively. Activity of compounds was determined in the plaque reduction assay, in which a cell monolayer was infected with a suspension of the appropirate HSV, and then overlaid with nutrient agarose in the form of a gel to ensure that there was no spread of virus throughout the culture. A range of concentrations of compound of known molarity was incorporated in the nutrient agarose overlay. Plaque numbers at each concentration were expressed as percentages of the control and a dose-response curve was drawn. From this curve the 50% inhibitory concentration (IC50) was estimated to be 0.66 μm for the compound of formula (I) in which X represents a 2-bromovinyl group.
# HSV2 = assay: Anti-HSV Activity, plaque reduction assay in Vero cells (HSV-2 strain 186); format: cell-based, Herpes Simplex Virus type 2 (strain 186)
# Experimental: as §1
# [1] = CCID50 (Table 1; method not described); format: cell-based
# [2] = toxicity / therapeutic index (general statement); conditions: statement in words
smiles,measurement,setting,value
"CCc1cn([C@H]2C[C@H](O)[C@@H](CO)S2)c(=O)[nH]c1=O [CH2 CH3, OH, 2'-Deoxy-5-ethyl-4'thiouridine]",IC50,VZV,790 nM
"Nc1nc(=O)n([C@H]2C[C@H](O)[C@@H](CO)S2)cc1/C=C/Br [CH=CHBr, NH2, 2'-Deoxy-5-E-(2-bromovinyl)-4'-thiocytidine]",IC50,"HSV1; Vero cells, strain SC16, plaque reduction",~2300 nM
same,IC50,"HSV2; Vero cells, strain 186, plaque reduction",> 10 µM
"O=c1[nH]c(=O)n([C@H]2C[C@H](O)[C@@H](CO)S2)cc1/C=C/Br [CH=CHBr, OH, E-5-(2-bromovinyl)-2'-deoxy-4'-thiouridine]",CC50,[1],> 500 µM
Cc1cn([C@H]2C[C@H](O)[C@@H](CO)S2)c(=O)[nH]c1=O [β-4'-thio-thymidine],activity against HSV1,HSV1; statement in words,good activity
same,toxicity,[2],toxic
same,activity against HSV2,HSV2; statement in words,good activity
